Experiments:
[1] = Hydrogel formation, vial inversion test (critical gel concentration); type: physicochemical; design: key: OG: opaque gel; P: precipitate; conditions: solvent switch
Source text: The simplest method to determine whether a suitable hydrogel has formed is to use the vial inversion test. Through visual inspection, a material can be categorised as a solution, viscous solution, partial gel, or solid-like gel. A stable hydrogel needs to be able to hold its weight and/or maintain its shape during this assessment.
The critical gel concentration (CGC) is defined as the minimum mass of a short peptide required to provide a self-supporting hydrogel per unit volume in the vial inversion test (measured as % w/v).
Pre-weighed samples of short peptide 4 were prepared in aluminium-covered glass vials and Milli-Q water and 2 equivalents of NaOH (1.0 M) were added to make up concentrations of 1% w/v. The resulting suspensions were vortexed for 5 minutes to provide clear yellow solutions with pH 11.
To create a high ionic strength environment, 1 equivalent of NaCl was added and the vial was left to stand without disturbance for 3 hours at room temperature. Meanwhile, as an attempt to form a hydrogel by lowering the pH, 2 equivalents of GdL were added to a high pH solution of 4 followed by gentle mixing. These vials were inverted and allowed to stand overnight to confirm the hydrogel formation.
The formation of hydrogel 4 via the solvent switch method was conducted by dissolving short peptide 4, in an aluminium covered glass vial, with either 50% methanol, ethanol, or dimethyl sulfoxide (DMSO). Respective amounts of Mili-Q water were added to make up concentrations of 1% w/v.
In addition, gelation time was defined as the time (hours) required for 1% w/v of short peptide 4 to form a hydrogel which can be turned upside down without collapsing.
Pre-weighed samples of short peptides 10a-17a, 18, and 19 were prepared in glass vials with 10 mm internal diameter, and Milli-Q water was added to make up concentrations of 1% w/v. The resulting suspensions of short peptides 13, 18, and 19 (as ammonium or guanidinium salts) were slowly warmed until all solid had completely dissolved. GdL (1.5 to 2.0 equivalents) was added to the suspension of short peptides 10a-17a, before heat was applied. To create a high ionic strength environment, 1-5 equivalents of NaCl was added to the viscous solution of 10a-17a to make the total volume up to 1 mL, followed by gentle mixing, and the vial was left to stand without disturbance for 3 hours at room temperature. Subsequently, these vials were inverted and allowed to stand overnight to confirm hydrogel formation.

[2] = NO release from hydrogel 4 quantified with Griess reagent; type: physicochemical
Protocol: NO release from hydrogel 4 was quantified using the Griess reagent, which is an indirect method that measures collected nitrite as the primary degradation product of NO. Nitrobenzene-appended anthranilamide-based hydrogel 4 was pre-formed in an aluminium covered vial at 1% w/v (1 mL). Milli-Q water (1 mL) was carefully cast on top of the hydrogel, which was subsequently exposed to UV or blue light irradiation. At certain time points (0, 5, 15, 30, 60, and 120 min), the entire upper solutions were carefully removed and allowed to react with Griess reagent, according to the indication of the NO assay kit (Promega), to provide an azo compound that is responsible for providing the colorimetric assay. Subsequently, 1 mL of fresh Milli-Q water was immediately added to the top of hydrogel 4 for continuing the release.
Due to the strong absorbance of hydrogel 4 in the UV range, NO release was triggered by using a UV lamp (λ=356 nm). The same volume of Milli-Q water was placed on top of hydrogel 4, which was irradiated with UV light for 2 hours. The entire solution, on top of the hydrogel, was removed and replaced with the same amount of Milli-Q water periodically. The resulting solutions were reacted with Griess reagent. Any NO generated during the experiment would react with oxygen to generate nitrite ion (NO2^−). The subsequent reaction between NO2^− with Griess reagent, which contains sulfanilamide and N-(1-naphthyl)ethylenediamine (NED), will form a bright pink azo-dye compound that can be quantified using UV-Vis spectroscopy, as shown in the below scheme: […]

E. coli K12 = experiment: Antibacterial activity of NO released from hydrogel 4 under blue light, viable count method; type: cell-based, Escherichia coli
Protocol: The antibacterial activity of NO released from hydrogel 4 was investigated in vitro. Initially, a single colony of E. coli K12 was grown in LB broth medium (Sigma-Aldrich) at 37° C. overnight. The resulting bacteria were harvested via centrifugation to obtain a bacteria pallet which was re-suspended in the same volume of LB, twice. The optical density value of the resulting culture was adjusted to 0.1 at 600 nm (10^8 cfu·mL^−1). This bacteria solution was then further adjusted to 3×10^4 cfu·mL^−1.
Hydrogel 4 was prepared at 1% w/v in two different vials. The first vial (vial a) contained hydrogel 4 which will be exposed to blue light. Meanwhile vial b contained hydrogel 4, which will be covered using aluminium foil during the entire experiment. Furthermore, on top of these pre-formed hydrogels, 1 mL of bacteria solution was carefully cast. A vial c that contained only 1 mL of bacteria solution was also prepared. Subsequently, vial a and vial c were irradiated using blue light (440-450 nm). As a negative control, a bacteria solution in the absence of hydrogel and blue light was used in this experiment. After 2 hours, 100 μL of bacteria solution in each vial was taken and subjected to serial dilution using PBS. 20 μL of each dilution were carefully transferred into nutrient agar plates and incubated for another 18 hours. The following day, bacterial growth inhibition were quantified using viable count method. The experiment was performed twice in triplicate and multiple sample comparison was performed using one-way ANOVA at p<0.05.
Bacterial culture (1 mL containing 3×10^4 CFU) was carefully placed on top of hydrogel 4, followed by irradiation of blue light for 1 hour. The viability of bacteria after being exposed to blue light was calculated via the viable count method as illustrated in FIG. 15.
Hydrogel 4, by itself, might exert activity against E. coli. Therefore, the antibacterial activity of hydrogel 4 in the absence of blue light was also determined in a control experiment. […]

[3] = Hydrogel formation, vial inversion test (critical gel concentration); type: physicochemical; conditions: solvent switch

For O=C(Nc1ccccc1C(=O)N[C@@H](Cc1ccccc1)C(=O)N[C@@H](Cc1ccccc1)C(=O)O)c1ccc([N+](=O)[O-])c(C(F)(F)F)c1 [Compound 4, (2-(4-Nitro-3-(trifluoromethyl)benzamido)benzoyl)-L-phenylalanyl-L-phenylalanine], the “Remarks (gel state)” value ([1]; DMSO 5 % v/v) was “P”, the “Remarks (gel state)” value ([1]; DMSO 50 % v/v) was “OG” and the “Remarks (gel state)” value ([1]; EtOH 5 % v/v) was “P”. The “Remarks (gel state)” value ([1]; EtOH 50 % v/v) was “OG”, the “Remarks (gel state)” value ([1]; MeOH 5 % v/v) was “P” and the “Remarks (gel state)” value ([1]; MeOH 50 % v/v) was “OG”. It also gave an NO detected ([2]; hydrogel 1% w/v, UV light (λ=356 nm), 5 minutes) of 1 µM, an NO generated ([2]; hydrogel 1% w/v, UV light (λ=356 nm), 30 minutes) of 7 µM and an NO recovered ([2]; hydrogel 1% w/v, UV light, 2 hours) of 61%. The “irradiation time required to generate NO concentration that can kill E. coli” value ([2]; hydrogel 1% w/v, blue light) was 1 h, the “total NO recovered” value ([2]; hydrogel 1% w/v, blue light, 2 hours) was 23% and the “NO release in the absence of triggers” value ([2]; no UV or blue light) was “does not leach NO”. For the same compound, the Log reduction (E. coli K12; hydrogel 4 1% w/v, blue light irradiation 1 hour) was ~3 Log, the “bacterial number after treatment” value (E. coli K12; hydrogel 4 1% w/v, blue light irradiation 1 hour, from 3×10^4 CFUs) was 34 CFUs and the “bacterial reduction without light” value (E. coli K12; hydrogel 4 without light irradiation) was “no bacterial reduction was observed”. The “Time (gelation time)” value ([3]; DMSO 5 % v/v) was “Immed” and the “Time (gelation time)” value ([3]; MeOH 5 % v/v) was “Immed”.
